Values of other authors in paper PMC7113672 (Antiviral Research, 2014).

What was measured:
[1] = test system: influenza A/WSN/1933 (H1N1) virus
[2] = test system: other cysteine proteases such as the coronaviral main protease, cathepsins B, K, L, and S, and papain
[3] = test system: MERS-CoV
[4] = test system: SARS-CoV; settings: in vivo

SMILES	selectivity index [1]	EC50 ([1]; read-out: EC50, protective effect against influenza A/WSN/1933 (H1N1) virus) [µM]	inhibition of other cysteine proteases [2]	effect of combination on replication of MERS-CoV [3]	EC50 ([3]; read-out: EC50, inhibition of MERS-CoV replication) [µM]	efficacy against SARS-CoV [4]
Sc1ncnc2nc[nH]c12 [6MP, 6-Mercaptopurine]	4	26.5	do not inhibit			
Nc1nc2nc[nH]c2c(=S)[nH]1 [6TG, 6-Thioguanine]			do not inhibit			
COc1c(C)c2c(c(O)c1C/C=C(\C)CCC(=O)O)C(=O)OC2 [Mycophenolic acid]				synergistically inhibit	0.27	ineffective
